Measurements taken from US4863951A, “Pharmacologically active amino-5,6,7,8-tetrahydronaphtho [2,3-B] furan compounds” (ADIR Et Cie, priority 1987, dated 1989).
Where a name gives a salt, the structure may show the parent alone. Read-outs that look alike come from different tables or passages of the source.

Assays:
[1] = tested on: aggression of isolated, bulbectomized rats; assay: Antiaggressive effects: aggression of isolated, bulbectomized rats; format: in vivo; settings: i.p., 5 mg.kg^-1, hydrochloride
Excerpt: (§1) The antiaggressive effects of the compounds of the invention were investigated by two methods, one of them testing for an inhibition of aggressive behavior in peviously isolated mice (Yen C. Y., Stanger A. L., and Millman N, Arch. Int. Pharmacodyn. Therap. (1959), 123, p. 179-185), and the other in isolated and bulbectomized rats (Garattini S. and Sigg E. B. "Aggressive Behaviour" p. 47-55 Ed. Excerpta Medica Found., Amsterdam, 1969).
(§2) (Tables IX and X, s=significant, p<0.05).

[2] = tested on: reserpine-induced hypothermia; assay: Antagonism of reserpine-induced hypothermia; format: in vivo, Swiss CD male mice; settings: mice, reserpine 2.5 mg.kg^-1 i.p.
Method: The antidepressant effects of the compounds of the invention were investigated by assessing the antagonism of reserpine-induced hypothermia and the antagonism of the ponto-geniculo-occipital waves induced by the compound Ro4-1284 in cats.
The study is carried out on Swiss CD male mice (27-28 g). After distribution into groups of 10 animals each, reserpine is injected intraperitoneally at a dose of 2.5 mg.kg^-1. Three hours later, the compounds undergoing trial are administered intraperitoneally. The rectal temperature of the animals is measured one hour and two hours after the second treatment, and compared with the initial temperature To of these same animals, measured immediately before the administration of the compounds undergoing trial.

[3] = tested on: isolation-induced aggression; assay: Antiaggressive effects: isolation-induced aggression in mice; format: in vivo; settings: isolated mice, i.p.
Excerpt: as §1, §2

[4] = tested on: apomorphine-induced stereotypy; assay: Antagonism of apomorphine-induced stereotypy in rats; format: in vivo; settings: Rattus norvegicus, ip, 0.5 h, apomorphine 1.5 mg.kg^-1 i.p., 30 minutes
Method: The inhibitory activity of the compounds of the invention with respect to apomorphine- or amphetamine-induced stereotypy in rats was assessed using the scale of scoring of stereotyped movements described by Quinton R. M. and Halliwell G. in Nature (1963), 200, p. 178-179.
Apomorphine or amphetamine was administered to the animals intraperitoneally at a dose of 1.5 mg.kg^-1. The percentage inhibition (-) or potentiation (+) of the stereotypy score (% ISS) shown in Tables IV and V for apomorphine corresponds to a measurement time of 30 minutes. In contrast, the percentage inhibition of the stereotypy score shown in Table VI for amphetamine corresponds to a measurement time of 3 hours. […]

[5] = tested on: apomorphine-induced rearing-up; assay: Antagonism of apomorphine-induced rearing-up behavior in mice; format: in vivo; settings: Mus musculus, ip, apomorphine 0.75 mg.kg^-1 s.c.
Method: Studied in the test of antagonism of apomorphine-induced rearing-up following the subcutaneous administration of a dose of 0.75 mg.kg^-1 of this substance in mice, the compounds of general formula I act in a clear-cut manner at doses greater than or equal to 2.5 mg.kg^-1 (i.p.). The same results are observed when the compounds of general formula I are administered orally at a dose of 20 mg.kg^-1. The activity of the compounds was assessed according to the method described by Protais P, Costentin J and Schwartz J. C. in Psychopharmacology (1976), 50, p. 1-6.
(s=significant difference, p<0.05).

[6] = tested on: apomorphine-induced hypothermia; assay: Antagonism with respect to apomorphine-induced hypothermia in mice; format: in vivo; settings: Mus musculus, ip, apomorphine 1 mg.kg^-1 s.c., after 2 hours
Method: Testing for an antagonism with respect to apomorphine-induced hypothermia in mice was performed according to the method described by CHERMAT R. and PONCELET M. in J. Pharmac. (1983), 14, No. 1, p. 93-97. The dose of apomorphine administered subcutaneously was 1 mg.kg^-1. Tables VII and VIII show the percentage antagonism of the hypothermia observed after 2 hours.

[7] = rats, i.p. dose 10 mg.kg^-1, read-out: % ISS (inhibition (-) or potentiation (+) of the stereotypy score)
[8] = rats, i.p. dose 20 mg.kg^-1, read-out: % ISS (inhibition (-) or potentiation (+) of the stereotypy score)
[9] = mice, i.p. dose 20 mg.kg^-1, read-out: % inhibition of rearing-up
[10] = mice, i.p. dose 40 mg.kg^-1, read-out: % inhibition of rearing-up
[11] = read-out: % ISS (inhibition (-) or potentiation (+) of the stereotypy score), rats, i.p. dose 10 mg.kg^-1
[12] = 2 h, read-out: % antagonism of hypothermia, mice, i.p. dose 10
[13] = 2 h, read-out: % antagonism of hypothermia, mice, i.p. dose 20
[14] = read-out: % inhibition of rearing-up, mice, i.p. dose 10 mg.kg^-1
[15] = read-out: % inhibition of rearing-up, mice, i.p. dose 40 mg.kg^-1
[16] = mice, i.p. dose 10, read-out: % antagonism of hypothermia
[17] = mice, i.p. dose 20, read-out: % antagonism of hypothermia
[18] = mice, i.p. dose 10 mg.kg^-1, read-out: % inhibition of rearing-up
[19] = read-out: % inhibition of rearing-up, mice, i.p. dose 20 mg.kg^-1

CNC1CCc2cc3c(cc2C1)OCC3 (stereo not drawn) [Example 39, l-7-(N-Methylamino)-2,3,5,6,7,8-hexahydronaphtho[2,3-b]furan hydrochloride]
% of rats rendered non-aggressive [1]: 58% | % inhibition of hypothermia ([2]; 2.5 mg.kg^-1 i.p., hydrochloride): +37% | % inhibition of hypothermia ([2]; 5 mg.kg^-1 i.p., hydrochloride): +14% | % inhibition of hypothermia ([2]; 10 mg.kg^-1 i.p., hydrochloride): +6% | % inhibition of hypothermia ([2]; 20 mg.kg^-1 i.p.): +15% | % of pairs of mice showing no sign of fighting ([3]; 2.5 mg.kg^-1): 70% | % of pairs of mice showing no sign of fighting ([3]; 5 mg.kg^-1, hydrochloride): 90%

O=C1CCCN1C1CCc2cc3c(cc2C1)OCC3 (racemic) [Example 37, dl-7-(2-Oxo-1-pyrrolidinyl)-2,3,5,6,7,8-hexahydronaphtho[2,3-b]furan]
change in vivo at 10 mg/kg [4, 7]: -6% | change in vivo at 20 mg/kg [4, 8]: -14%

CC(CCCCCC(=O)O)NC1CCc2cc3c(cc2C1)OCC3 (racemic) [Example 31, dl-7-{N-(2,3,5,6,7,8-Hexahydronaphtho[2,3-b]furan-7-yl)amino}-7-methylheptanoic acid hydrochloride]
change in vivo at 10 mg/kg [4, 7]: 5% | change in vivo at 20 mg/kg [4, 8]: -3% | change in vivo at 20 mg/kg [5, 9]: 5% | change in vivo at 40 mg/kg [5, 10]: 22%

CCCNC1CCc2cc3c(cc2C1)OCC3 (racemic) [Example 34, dl-7-N-n-Propylamino)-2,3,5,6,7,8-hexahydronaphtho[2,3,-b]furan hydrochloride]
change in vivo at 10 mg/kg [4, 11]: -68% | change in vivo at 20 mg/kg ([4]; read-out: % ISS (inhibition (-) or potentiation (+) of the stereotypy score), rats, i.p. dose 20 mg.kg^-1): -70% | change in vivo at 10 mg/kg [6, 12]: -7% | change in vivo at 20 mg/kg [6, 13]: -16% | change in vivo at 10 mg/kg [5, 14]: -23% | change in vivo at 40 mg/kg [5, 15]: -100%

CC(CCCC(=O)O)NC1CCc2cc3c(cc2C1)OCC3 (racemic) [Example 27]
change in vivo at 10 mg/kg [4, 7]: -5% | change in vivo at 20 mg/kg [4, 8]: -8% | change in vivo at 10 mg/kg [6, 16]: -5% | change in vivo at 20 mg/kg [6, 17]: -32% | % inhibition of hypothermia ([2]; 10 mg.kg^-1 i.p.): -13% | % inhibition of hypothermia ([2]; 20 mg.kg^-1 i.p.): -21% | change in vivo at 10 mg/kg [5, 18]: -46% | change in vivo at 20 mg/kg [5, 9]: -63%

CCCN(CCC)C1CCc2cc3c(cc2C1)OCC3 (racemic) [Example 5, dl-7-(N,N-Dipropylamino)-2,3,5,6,7,8-hexahydronaphtho[2,3-b]furan]
change in vivo at 5 mg/kg ([4]; read-out: % ISS (inhibition (-) or potentiation (+) of the stereotypy score), rats, i.p. dose 5 mg.kg^-1): -3% | change in vivo at 10 mg/kg [4, 11]: 0% | change in vivo at 5 mg/kg ([6]; 2 h, read-out: % antagonism of hypothermia, mice, i.p. dose 5): -20% | change in vivo at 10 mg/kg [6, 12]: -47% | change in vivo at 20 mg/kg [6, 13]: -68% | % of pairs of mice showing no sign of fighting ([3]; 20 mg.kg^-1): 50% | % of pairs of mice showing no sign of fighting ([3]; 40 mg.kg^-1): 89% | change in vivo at 20 mg/kg [5, 19]: 27% | change in vivo at 40 mg/kg [5, 15]: -54%

NC1CCCc2cc3c(cc21)CCO3 (racemic) [Example 18, dl-5-Amino-2,3,5,6,7,8-hexahydronaphtho[2,3,-b]furan hydrochloride]
change in vivo at 20 mg/kg [5, 19]: -12% | change in vivo at 40 mg/kg [5, 15]: 6%

OCCCCCCNC1CCc2cc3c(cc2C1)OCC3 (racemic) [Example 32, dl-7-[N-(6-Hydroxyhexyl)amino]-2,3,5,6,7,8-hexahydronaphtho[2,3-b]furan hydrochloride]
change in vivo at 10 mg/kg [4, 7]: -3% | change in vivo at 20 mg/kg [4, 8]: -5% | change in vivo at 10 mg/kg [6, 16]: -10% | change in vivo at 20 mg/kg [6, 17]: -13% | % inhibition of hypothermia ([2]; 10 mg.kg^-1 i.p.): -1% | % inhibition of hypothermia ([2]; 20 mg.kg^-1 i.p.): -29% | % of pairs of mice showing no sign of fighting ([3]; 5 mg.kg^-1): 10% | % of pairs of mice showing no sign of fighting ([3]; 20 mg.kg^-1): 30% | change in vivo at 20 mg/kg [5, 9]: -32% | change in vivo at 40 mg/kg [5, 10]: -40%

NC1CCCc2cc3c(cc21)OCC3 (racemic) [Example 15, dl-8-Amino-2,3,5,6,7,8-hexahydronaphtho[2,3-b]furan hyrochloride]
change in vivo at 20 mg/kg [5, 19]: -9% | change in vivo at 40 mg/kg [5, 15]: 0%

O=C(O)CCCCCNC1CCc2cc3c(cc2C1)OCC3 (racemic) [Example 25, dl-6-{N-(2,3,6,7,8-Hexahydronaphtho[2,3-b]furan-7-yl)amino}hexanoic acid hydrochloride]
change in vivo at 10 mg/kg [4, 7]: 9% | % of pairs of mice showing no sign of fighting ([3]; 10 mg.kg^-1): 20%

FC(F)(F)CNC1CCc2cc3c(cc2C1)OCC3 (racemic) [Example 35, dl-7-[N-(2,2,2-Trifluoroethyl)amino]-2,3,5,6,7,8-hexahdronaphtho[2,3-b]furan hydrochloride]
change in vivo at 10 mg/kg [6, 16]: -16% | change in vivo at 20 mg/kg [6, 17]: -31% | % inhibition of hypothermia ([2]; 10 mg.kg^-1 i.p.): -20% | % inhibition of hypothermia ([2]; 20 mg.kg^-1 i.p.): -4% | change in vivo at 10 mg/kg [5, 18]: -30% | change in vivo at 20 mg/kg [5, 9]: -38%

NC1CCc2cc3ccoc3cc2C1 (racemic) [Example 21, dl-7-Amino-5,6,7,8-tetrahydronaphtho[2,3-b]furan hydrochloride]
change in vivo at 10 mg/kg [5, 14]: -56% | change in vivo at 20 mg/kg [5, 19]: -84%

NC1CCc2cc3c(cc2C1)CCO3 (racemic) [Example 19, dl-6-Amino-2,3,5,6,7,8-hexahydronaphtho[2,3-b]furan hydrochloride]
change in vivo at 20 mg/kg [5, 19]: -57% | change in vivo at 40 mg/kg [5, 15]: -90%

CC(CCCCC(=O)O)NC1CCc2cc3c(cc2C1)OCC3 (racemic) [Example 29, dl-6-{N-(2,3,5,6,7,8-Hexahydronaphtho[2,3-b]furan-7-yl)amino}-6-methylhexanoic acid hydrochloride]
change in vivo at 10 mg/kg [4, 7]: 11%

CN(CC1CCCCC1)C1CCc2cc3c(cc2C1)OCC3 (racemic) [Example 10, dl-7-(N-Cyclohexylmethyl-N-methylamino)-2,3,5,6,7,8-hexahydronaphtho[2,3-b]furan hydrochloride]
% of pairs of mice showing no sign of fighting ([3]; 5 mg.kg^-1): 0% | % of pairs of mice showing no sign of fighting ([3]; 10 mg.kg^-1): 11% | % of pairs of mice showing no sign of fighting ([3]; 20 mg.kg^-1): 60% | change in vivo at 10 mg/kg [5, 14]: 11% | change in vivo at 20 mg/kg [5, 19]: 11% | change in vivo at 40 mg/kg [5, 15]: -96%
